Measured values reported in US11419806B2, “Prebiotic oral care methods using a saccharide” (Colgate-Palmolive Company, priority 2013, dated 2022).

Assays:
Test in all cases: Phenotype microarray metabolic activity
Format in all cases: cell-based
Actinomyces viscosus = details: for metabolic activity: OD 492 nm divided by OD of control (control = 1): A viscosus
Procedure: (§1) The extent of metabolic activity of the tested bacteria in the presence of the above-mentioned saccharides after 24 hours and 48 hours was investigated through a high throughput phenotype microarray system (PM) for microbial cells (Biolog Inc.). Each PM can contain up to 95 different biochemical compounds (e.g. saccharides) that may act as substrates for bacteria as well as one negative control, not containing the substrates. Microarray plates were used in which the different wells of each plate were pre-loaded (by the manufacturer, Biolog Inc.) with different saccharides to be tested. Each bacterial species was tested using a separate microarray plate. Thus, a single bacterial species was tested with a variety of saccharides on each particular plate. The microarrays are based on redox technology, using cell respiration as a universal reporter. Active cell respiration results in the reduction of a tetrazolium dye and in the formation of a strong color—for example, when using the tetrazolium dye “Biolog Redox Dye Mix D”, the color changes from transparent/colorless to purple when the dye is reduced. The observation of this color change indicates which of the substrates improve the metabolic activity and health of the cells.
(§2) Each bacterial species was collected from blood agar plates (incubated for 48 hours anaerobically at 37° C.) and transferred to an IF-0 Base inoculation fluid (Biolog Inc.), which is a nutritionally poor medium. The resulting cell suspension was adjusted to a transmittance of 42% (relative to the transmittance of the base inoculation fluid with no bacterial species present) at 492 nm using a BioRad SmartSpec 3000 Photometer (the adjustment being effected by adding either further inoculation fluid or further bacteria until the transmittance of 42% was achieved). A 1:5 dilution of this suspension was prepared by mixing 3 mL of the 42% transmittance cell suspension with 15 mL of an inoculation fluid (which inoculation fluid was formed by mixing 11.6 mL sterile water, 62.5 mL IF-0 base inoculation fluid and 0.9 mL of the tetrazolium dye “Biolog Redox Dye mix D”), resulting in a final cell density which was equal to 85% transmittance using a BioRad SmartSpec 3000 Photometer. For each of the saccharides tested, the microarray plate (obtained from the supplier (Biolog Inc.) with saccharides already present in the relevant wells in powder form) was directly inoculated with 100 μL/well of this 85% transmittance cell suspension.
(§3) All plates were incubated in an anaerobic atmosphere at 37° C. Color changes were measured spectrophotometrically at 492 nm (Thermo Scientific Multiskan Ascent) at 24 hrs and 48 hrs using the same plate at both time points. […] After 24 hrs and 48 hrs under continuous shaking in a Multiscan microplate reader, the optical density (OD) of the synthetic medium at 24 hours and 48 hours was measured (using the microplate reader) at a wavelength of 492 nm for each combination of bacterium/saccharide, and for each of their respective controls (i.e. which contained the particular bacterium but no saccharide).
(§4) The experiment was carried out three times for each combination of bacterium with saccharide, with each repeat being carried out on a different day (thus providing three biological replicas). The controls were also carried out three times, as above. The values shown are the average (mean) of the three single values obtained (as detailed above) for each combination of bacterium with saccharide, at 24 hrs and at 48 hrs.

Porphyromonas gingivalis = details: P gingivalis
Procedure: as §1, §2, §3, §4

Prevotella intermedia = details: P intermedia
Procedure: as §1, §2, §3, §4

Streptococcus mutans = details: for metabolic activity: OD 492 nm divided by OD of control (control = 1): S mutans
Procedure: as §1, §2, §3, §4

Streptococcus salivarius = details: for metabolic activity: OD 492 nm divided by OD of control (control = 1): S salivarius
Procedure: as §1, §2, §3, §4

Tannerella forsythia = details: T forsythia
Procedure: as §1, §2, §3, §4

Veillonella parvula = details: V parvula
Procedure: as §1, §2, §3, §4

SMILES	increase in metabolic activity of A. viscosus, in words (Actinomyces viscosus; 24 hrs)	metabolic activity: OD 492 nm divided by OD of control (control = 1) (Actinomyces viscosus; 24 hrs)	metabolic activity: OD 492 nm divided by OD of control (control = 1) (Actinomyces viscosus; 48 hrs)	metabolic activity: OD 492 nm divided by OD of control (control = 1) (Porphyromonas gingivalis; 24 hrs)	metabolic activity: OD 492 nm divided by OD of control (control = 1) (Porphyromonas gingivalis; 48 hrs)	metabolic activity: OD 492 nm divided by OD of control (control = 1) (Prevotella intermedia; 24 hrs)	metabolic activity: OD 492 nm divided by OD of control (control = 1) (Prevotella intermedia; 48 hrs)	increase in metabolic activity of S. mutans, in words (Streptococcus mutans; 24 hrs)	metabolic activity: OD 492 nm divided by OD of control (control = 1) (Streptococcus mutans; 24 hrs)	metabolic activity: OD 492 nm divided by OD of control (control = 1) (Streptococcus mutans; 48 hrs)	increase in metabolic activity of S. salivarius, in words (Streptococcus salivarius; 24 hrs)	metabolic activity: OD 492 nm divided by OD of control (control = 1) (Streptococcus salivarius; 24 hrs)	metabolic activity: OD 492 nm divided by OD of control (control = 1) (Streptococcus salivarius; 48 hrs)	metabolic activity: OD 492 nm divided by OD of control (control = 1) (Tannerella forsythia; 24 hrs)	metabolic activity: OD 492 nm divided by OD of control (control = 1) (Tannerella forsythia; 48 hrs)	metabolic activity: OD 492 nm divided by OD of control (control = 1) (Veillonella parvula; 24 hrs)	metabolic activity: OD 492 nm divided by OD of control (control = 1) (Veillonella parvula; 48 hrs)
OC[C@@H](O)[C@@H](O[C@H]1O[C@H](CO)[C@H](O)[C@H](O)[C@H]1O)[C@H](O)[C@@H](O)CO [D-Lactitol, 4-O-α-D-galactopyranosyl-D-glucitol]	marked increase	4.2553	4.9364	0.8216	1.0092	0.9834	0.9481	borderline increase	2.0160	2.7520	marked increase	4.7396	5.1101	1.0703	1.1172	0.8079	0.6786
OC[C@H]1O[C@@](O)(CO)[C@@H](O[C@H]2O[C@H](CO)[C@@H](O)[C@H](O)[C@H]2O)[C@@H]1O [D-Turanose, α-D-glucopyranosyl-(1→3)-α-D-fructofuranose]		2.2260	3.0809	0.8165	0.7822	1.1121	1.2058		1.4769	2.1955		1.1489	1.2834	1.0435	1.1254	0.8743	0.7770
O[C@H]1[C@H](O)[C@@H](O)[C@H](O)[C@@H](O)[C@H]1O [Myo-Inositol, (1R,2R,3S,4S,5R,6S)-cyclohexane-1,2,3,4,5,6-hexol]		4.3733	4.6590	0.8077	0.7871	1.0174	1.0226		0.8961	0.8221		0.9641	0.8260	0.9597	0.9564	1.0283	1.0829
CC(=O)N[C@H](C=O)[C@@H](O)[C@H](O)[C@H](O)CO [N-acetyl-D-mannosamine, 2-acetamido-2-deoxy-D-mannose]		0.9778	1.0151	0.7968	0.8296	0.9878	0.9805		1.0429	1.0176		1.0589	0.9795	0.9666	0.9443	0.9189	0.9284
